Data on 9 molecules can be found in patent US20260306476A1, “ANTIBACTERIAL COMPOUND PBT2” (priority 2022, published 2026).

For assay [1], the system named is Neisseria gonorrhoeae strain WHO Z. The conditions noted are these: strain phenotype; cited from earlier work.
The test system of another assay is Neisseria gonorrhoeae. The experiment in a line: Antibiotic resistance development test over 30 days. The class given is cell-based. The conditions noted are these: control; 30 days of treatment. How it is done:
FIG. 2: Antibiotic resistance development assay of PBT2.
Resistance development was tested over a 30 day period with PBT2 and using Kanamycin as a control.

The test system of assay [2] is Neisseria gonorrhoeae ATCC49226. Nature of the assay: MIC of PBT2 and comparators against CLSI reference strain. Particulars: ATCC49226, comparator antimicrobials. The class given is cell-based. From the text: 13 multidrug resistant WHO strains of Neisseria gonorrhoeae were selected to cover antimicrobial resistance phenotypes to all the antibiotics currently used.

For assay [3] the test system is unchanged. The conditions noted are these: cited from earlier work.
Assay [4] relates to Neisseria gonorrhoeae strain WHO Z. Nature of the assay: Ex vivo Neisseria gonorrhoeae infection of human cervical (Pex) cells. It counts as cell-based. The text has this: FIG. 4: Chart indicating PBT2 can cure Neisseria gonorrhoeae infection of human cervical (Pex) cells. […] Ceftriaxone (CRO, positive control) is currently recommended for gonorrhoea treatment. Veh—0.1% DMSO vehicle control; UT—untreated; * p<0.0001 versus vehicle for CRO or PBT2 treatment.
To assess the ability of PBT2 to cure an established gonococcal infection in a human ex vivo system, primary human cervical epithelial (Pex) cells were challenged with Neisseria gonorrhoeae strain WHO Z for 90 min and then treated with 0.1% DMSO (vehicle control), PBT2 (0.016 mg/L to 4.695 mg/L), or ceftriaxone (0.5 mg/L, positive control) for 24 h. Viable gonococci were then enumerated. […] PBT2-induced Pex cell cytotoxicity was not observed during the assay.

Assay [5] has the same test system. The experiment in a line: MIC of Triton X-100 with/without PBT2. It counts as cell-based. From the text: Without wishing to be bound by theory, the inventors hypothesise that this may due to the fact PBT2 is a derivative of the iron chelator clioquinol and PBT2 has the capacity to chelate a range of heavy metals including iron. Genes encoding metal homeostasis proteins (blue dots) are presented in the volcano plot (FIG. 3). Metal homeostasis was previously identified as a crucial feature of gonococcal biology, and therefore it is postulated this may be an “Achilles' heel” with respect to Neisseria gonorrhoeae ionophore sensitivity. […] MpeR is an iron-repressed, AraC-like protein that regulates the mtr efflux locus (involved in antimicrobial susceptibility) in Neisseria gonorrhoeae. Up-regulation of mpeR (e. g. by PBT2) down-regulates MtrF and, in turn, would increase Neisseria gonorrhoeae sensitivity to the antimicrobial detergent, Triton X-100 (22). […] Thus, without wishing to be bound to theory, the inventors hypothesise that PBT2 may influence bacterial iron homeostasis and trigger general defence mechanisms, such as Mtr-mediated antimicrobial efflux, but the Mtr-system may be unable to protect against PBT2.

Assay [6] has as its system Streptococcus uberis (S. uberis). The conditions noted are these: in the absence of an antibiotic; cited from earlier work.
Assay [7] concerns erythromycin-resistant group A Streptococcus (GAS). The conditions noted are these: in the absence of an antibiotic; cited from earlier work.
In assay [8] the test system is methicillin-resistant Staphylococcus aureus (MRSA). The conditions noted are these: in the absence of an antibiotic; cited from earlier work.
Assay [9] concerns vancomycin-resistant Enterococcus (VRE). The conditions noted are these: in the absence of an antibiotic; cited from earlier work.

Consider `O=C(O)c1cn(C2CC2)c2cc(N3CCNCC3)c(F)cc2c1=O` [Ciprofloxacin], for which the “resistance of WHO Z” value in assay [1] is “resistant”.
With `NC[C@H]1O[C@H](O[C@H]2[C@H](O)[C@@H](O[C@H]3O[C@H](CO)[C@@H](O)[C@H](N)[C@H]3O)[C@H](N)C[C@@H]2N)[C@H](O)[C@@H](O)[C@@H]1O` [Kanamycin, reference compound], in the assay on Neisseria gonorrhoeae, the “development of resistance to kanamycin” value is recorded as “development of resistance”.
Broadly, the MIC is the smallest concentration in the dilution series that meets the test's criterion for growth inhibition. As for `CN(C)[C@@H]1C(O)=C(C(N)=O)C(=O)[C@@]2(O)C(O)=C3C(=O)c4c(O)cccc4[C@@](C)(O)[C@H]3C[C@@H]12` [Tetracycline, reference compound], the MIC in assay [2] (agar dilution) and in [2] (broth dilution) was 0.25 µg/mL in each case. For the same molecule, the “CLSI agar dilution MIC QC range” value in assay [3] is 0.25 to 1 µg/mL. The “resistance of WHO Z” value in assay [1] is “resistant”.
Take `CC[C@H]1OC(=O)[C@H](C)[C@@H](O[C@H]2C[C@@](C)(OC)[C@@H](O)[C@H](C)O2)[C@H](C)[C@@H](O[C@@H]2O[C@H](C)C[C@H](N(C)C)[C@H]2O)[C@](C)(O)C[C@@H](C)CN(C)[C@H](C)[C@@H](O)[C@]1(C)O` [azithromycin]: the “resistance of WHO Z” value in assay [1] is given as “resistant”.
Take `C=CC1=C(C(=O)O)N2C(=O)[C@@H](NC(=O)/C(=N\OCC(=O)O)c3csc(N)n3)[C@H]2SC1` [cefixime]: the “resistance of WHO Z” value in [1] was “resistant”.
As to `CO/N=C(\C(=O)N[C@@H]1C(=O)N2C(C(=O)O)=C(CSc3nc(=O)c(=O)[nH]n3C)CS[C@H]12)c1csc(N)n1` [ceftriaxone, reference compound], in assay [4] (ceftriaxone positive control (0.5 mg/L)), the “susceptibility of WHO Z” value is listed as “susceptible”. Further, the p versus vehicle in assay [4] (survival at 24 h, FIG. 4, CRO 0.5 mg/L) is given as less than 0.0001. Besides, the “resistance of WHO Z” value in [1] is “resistant”.
Take `CC1(C)S[C@@H]2[C@H](NC(=O)Cc3ccccc3)C(=O)N2[C@H]1C(=O)O` [penicillin G]: the “resistance of WHO Z” value in assay [1] was “resistant”.
With Triton X-100, the “MIC of Triton X-100” value was 125 µg/mL in [5] (in the presence of 0.156 mg/L (sub-MIC) PBT2) and more than 1000 µg/mL in assay [5] (without PBT2).
As for zinc [reference compound], the antibacterial activity entry in assay [6], in [7], in assay [8] and in [9] was “neither PBT2 nor zinc alone displayed antibacterial activity which would be suitable to treat an infection” throughout.
